Results reported in ChEMBL document CHEMBL1201862, “PubChem BioAssay data set” (2004).
Active and inactive are the calls of the source.

Assays:
[1] = molecular target: T1, Sentrin-specific protease 7 (Homo sapiens, UniProt Q9BQF6); format: functional;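 note: Luminescence-based dose-response confirmation of ultra-high-throughput screening hits, measuring inhibition of SENP7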
T1 sequence (Q9BQF6 whole entry): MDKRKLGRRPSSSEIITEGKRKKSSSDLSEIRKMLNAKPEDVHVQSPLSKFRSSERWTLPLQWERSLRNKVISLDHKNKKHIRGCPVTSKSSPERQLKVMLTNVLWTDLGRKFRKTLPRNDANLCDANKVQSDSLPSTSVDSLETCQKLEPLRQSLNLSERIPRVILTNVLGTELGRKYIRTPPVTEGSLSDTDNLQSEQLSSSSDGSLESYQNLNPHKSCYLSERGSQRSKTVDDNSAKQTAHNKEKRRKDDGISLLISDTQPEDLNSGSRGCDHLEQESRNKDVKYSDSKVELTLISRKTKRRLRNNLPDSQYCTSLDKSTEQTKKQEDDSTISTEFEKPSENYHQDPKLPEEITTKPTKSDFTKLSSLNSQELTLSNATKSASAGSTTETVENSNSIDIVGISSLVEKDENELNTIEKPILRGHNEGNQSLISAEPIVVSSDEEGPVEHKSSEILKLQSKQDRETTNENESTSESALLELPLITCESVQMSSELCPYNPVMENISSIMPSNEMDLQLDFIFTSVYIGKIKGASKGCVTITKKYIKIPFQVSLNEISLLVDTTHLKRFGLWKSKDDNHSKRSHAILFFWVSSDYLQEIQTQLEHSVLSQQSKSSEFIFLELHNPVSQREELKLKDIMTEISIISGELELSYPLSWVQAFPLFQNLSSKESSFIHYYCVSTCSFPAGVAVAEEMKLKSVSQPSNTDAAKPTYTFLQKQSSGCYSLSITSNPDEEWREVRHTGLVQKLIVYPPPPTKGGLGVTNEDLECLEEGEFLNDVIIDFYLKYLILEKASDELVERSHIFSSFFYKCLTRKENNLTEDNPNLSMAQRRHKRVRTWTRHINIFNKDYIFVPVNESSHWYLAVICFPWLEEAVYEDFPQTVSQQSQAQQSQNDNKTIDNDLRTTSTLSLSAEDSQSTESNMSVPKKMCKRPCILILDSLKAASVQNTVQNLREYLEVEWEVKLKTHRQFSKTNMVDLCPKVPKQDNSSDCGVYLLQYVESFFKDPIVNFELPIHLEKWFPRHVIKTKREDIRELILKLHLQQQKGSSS

[2] = molecular target: T2, Sentrin-specific protease 8 (Homo sapiens, UniProt Q96LD8); format: functional;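 note: luminescence read-out of SENP8 inhibition, dose-response confirmation following an ultra-high-throughput screen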
T2 sequence (Q96LD8 whole entry): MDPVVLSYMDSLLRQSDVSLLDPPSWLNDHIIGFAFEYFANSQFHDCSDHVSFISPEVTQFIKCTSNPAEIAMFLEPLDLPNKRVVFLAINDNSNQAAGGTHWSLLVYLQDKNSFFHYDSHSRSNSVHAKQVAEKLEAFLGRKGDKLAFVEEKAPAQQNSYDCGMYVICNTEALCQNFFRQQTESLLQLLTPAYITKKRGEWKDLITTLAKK

[3] = molecular target: T3, Sentrin-specific protease 6 (Homo sapiens, UniProt Q9GZR1); format: functional;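 note: Luminescence-based dose-response confirmatory assay of SENP6 inhibition, following up an ultra-high-throughput screen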
T3 sequence (Q9GZR1 whole entry): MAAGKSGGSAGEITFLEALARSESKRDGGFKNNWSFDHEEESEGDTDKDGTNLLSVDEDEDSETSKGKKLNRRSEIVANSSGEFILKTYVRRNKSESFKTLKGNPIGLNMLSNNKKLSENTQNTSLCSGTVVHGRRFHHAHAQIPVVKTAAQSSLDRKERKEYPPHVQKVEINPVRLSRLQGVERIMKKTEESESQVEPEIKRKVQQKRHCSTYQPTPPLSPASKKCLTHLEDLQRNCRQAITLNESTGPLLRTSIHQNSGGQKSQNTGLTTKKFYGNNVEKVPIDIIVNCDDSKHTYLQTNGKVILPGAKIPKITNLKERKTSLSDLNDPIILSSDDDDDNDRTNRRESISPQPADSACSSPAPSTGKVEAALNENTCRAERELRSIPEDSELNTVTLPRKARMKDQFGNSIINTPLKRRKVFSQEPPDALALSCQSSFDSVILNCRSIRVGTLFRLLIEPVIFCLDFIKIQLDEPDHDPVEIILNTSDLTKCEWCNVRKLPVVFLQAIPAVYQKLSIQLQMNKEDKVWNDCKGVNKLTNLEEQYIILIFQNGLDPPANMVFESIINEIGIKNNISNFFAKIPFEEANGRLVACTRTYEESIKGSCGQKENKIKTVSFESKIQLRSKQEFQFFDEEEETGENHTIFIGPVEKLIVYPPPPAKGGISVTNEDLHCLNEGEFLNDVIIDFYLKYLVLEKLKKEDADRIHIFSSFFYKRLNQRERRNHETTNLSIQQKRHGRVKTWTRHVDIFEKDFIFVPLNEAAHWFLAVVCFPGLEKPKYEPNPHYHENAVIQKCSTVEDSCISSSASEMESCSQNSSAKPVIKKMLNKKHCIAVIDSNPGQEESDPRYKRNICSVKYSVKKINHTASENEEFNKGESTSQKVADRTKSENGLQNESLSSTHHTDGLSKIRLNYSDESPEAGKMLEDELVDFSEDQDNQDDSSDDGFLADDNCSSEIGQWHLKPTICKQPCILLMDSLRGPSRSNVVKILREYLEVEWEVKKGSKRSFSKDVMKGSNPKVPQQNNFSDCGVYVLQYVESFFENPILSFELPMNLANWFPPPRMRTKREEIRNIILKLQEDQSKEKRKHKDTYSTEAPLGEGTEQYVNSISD

Caspase-3 = molecular target: T4, Caspase-3 (Homo sapiens, UniProt P42574); format: functional;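 note: Dose-response selectivity test against caspase-3 for candidate inhibitors of sentrin-specific proteases (SENPs)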
T4 sequence (P42574 whole entry): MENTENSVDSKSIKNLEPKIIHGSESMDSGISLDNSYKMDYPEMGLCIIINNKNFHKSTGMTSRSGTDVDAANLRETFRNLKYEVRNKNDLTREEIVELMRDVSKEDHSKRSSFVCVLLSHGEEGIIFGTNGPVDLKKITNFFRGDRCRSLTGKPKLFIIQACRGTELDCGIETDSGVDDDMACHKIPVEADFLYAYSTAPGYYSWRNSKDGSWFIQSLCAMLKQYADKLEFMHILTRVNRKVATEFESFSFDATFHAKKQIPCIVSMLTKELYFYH

[4] = Fluorescence-based cell-based high throughput dose response assay for inhibitors of the interaction of nucleotide-binding oligomerization domain containing 2 (NOD2) and the receptor-interacting serine-threonine kinase 2 (RIPK2).; format: functional; details: Homo sapiens
INS1 = test: beta cell apoptosis inhibitors, cytokine rescue, dose response, luminescence, retest (AID 449756); format: functional, cell-based; details: Rattus norvegicus;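 note: cell death triggered by IL-1 beta plus TNF-alpha plus IFN-gamma mixture; protective hits raise ATP signal compared with cytokine alone wells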
[5] = inhibitors of intracellular T. cruzi replication, confirmation, NIH3T3 host cells, beta-gal luminescence (AID 2044); format: functional, cell-based;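 note: intracellular parasites grown in NIH/3T3 mouse fibroblasts as host cells; luminescent beta-galactosidase reporter signal from transgenic T. cruzi replicating inside host cells; inhibitors lower the luminescence signal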
[6] = Luminescence Cell-Based Dose Retest to Confirm Inhibitors of Cancer Stem Cells. [Related pubchem assays (depositor defined):AID2717, AID2721]; format: functional; details: Homo sapiens
Beta Lactamase = Beta Lactamase (Pseudomonas aeruginosa, UniProt Q932Y6); test: beta-lactamase reporter inhibitor potency, dose response, artefact control for TLR9-MyD88 binding inhibitor project, BLA reporter cells, FRET fluorescence (AID 588341); format: cell-based;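 note: cell based assay in CHO-K1 cells stably expressing beta-lactamase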
Beta-galactosidase = Beta-galactosidase (Escherichia coli, UniProt Q8VNN2); test: PubChem AID 485352; format: functional
[7] = molecular target: T5, Type-1 angiotensin II receptor (Homo sapiens, UniProt P30556); test: AT1 receptor antagonists, dose response, selectivity assay for APJ receptor antagonist project, cell-based, uHTS hits (AID 463214); format: functional;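 note: antagonist potency against angiotensin II stimulated AT1 response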
T5 sequence (P30556 whole entry): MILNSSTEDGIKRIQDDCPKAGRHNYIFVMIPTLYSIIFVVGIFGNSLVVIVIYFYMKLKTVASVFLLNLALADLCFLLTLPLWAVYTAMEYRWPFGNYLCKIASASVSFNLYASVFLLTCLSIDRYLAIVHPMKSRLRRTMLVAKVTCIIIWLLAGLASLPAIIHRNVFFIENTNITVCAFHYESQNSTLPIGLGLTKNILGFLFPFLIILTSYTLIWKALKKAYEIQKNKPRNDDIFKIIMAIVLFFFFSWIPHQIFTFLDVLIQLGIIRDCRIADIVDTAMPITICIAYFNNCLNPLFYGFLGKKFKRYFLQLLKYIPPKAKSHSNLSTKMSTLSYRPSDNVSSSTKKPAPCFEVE

[8] = molecular target: T6, Microphthalmia-associated transcription factor (Homo sapiens, UniProt O75030); test: TRPM1 promoter luciferase signal decrease, dose response, MITF inhibitor project, cell-based, SK-MEL-5, cherry-picked, set 3 (AID 493073); format: functional
T6 sequence (O75030 whole entry): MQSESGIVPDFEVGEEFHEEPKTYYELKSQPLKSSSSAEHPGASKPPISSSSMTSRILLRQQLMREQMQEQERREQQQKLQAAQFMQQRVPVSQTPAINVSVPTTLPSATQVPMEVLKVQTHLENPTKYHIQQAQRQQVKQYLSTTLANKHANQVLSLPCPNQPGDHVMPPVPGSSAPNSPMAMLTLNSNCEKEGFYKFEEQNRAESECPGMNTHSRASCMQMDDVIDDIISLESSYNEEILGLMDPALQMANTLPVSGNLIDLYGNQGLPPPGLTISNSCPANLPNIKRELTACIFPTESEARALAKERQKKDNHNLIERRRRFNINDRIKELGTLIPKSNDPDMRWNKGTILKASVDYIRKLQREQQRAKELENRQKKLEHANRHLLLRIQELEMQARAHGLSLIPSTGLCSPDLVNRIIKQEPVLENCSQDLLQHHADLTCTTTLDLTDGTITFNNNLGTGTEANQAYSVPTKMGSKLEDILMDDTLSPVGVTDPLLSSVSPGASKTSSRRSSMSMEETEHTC

CHO = test: cytotoxicity in TLR9-MyD88 CHO cells, dose response, cytotoxicity control for TLR9-MyD88 binding inhibitor project, cell-based, luminescence (AID 588339); format: functional, hamster; details: Cricetulus griseus;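 note: CHO cells stably coexpressing TLR9 and MyD88 fusions from primary screen; compound exposure lasted 48 hours before viability readout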
[9] = cytotoxicity toward NIH3T3 fibroblasts, dose response, counter-screen, cell-based, ATP luminescence, mouse fibroblasts (AID 2010); format: functional;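 note: cells exposed to compound for about 90 hours before reading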
[10] = molecular target: T7, Corticotropin-releasing factor receptor 2/Corticotropin-releasing factor-binding protein (Homo sapiens, UniProt P24387+Q13324); test: activators of CRF receptor 2 with binding protein – uHTS hits, confirmation (AID 602473); format: functional; details: read-out: EC50_Mean
T7 sequence (Q13324 whole entry): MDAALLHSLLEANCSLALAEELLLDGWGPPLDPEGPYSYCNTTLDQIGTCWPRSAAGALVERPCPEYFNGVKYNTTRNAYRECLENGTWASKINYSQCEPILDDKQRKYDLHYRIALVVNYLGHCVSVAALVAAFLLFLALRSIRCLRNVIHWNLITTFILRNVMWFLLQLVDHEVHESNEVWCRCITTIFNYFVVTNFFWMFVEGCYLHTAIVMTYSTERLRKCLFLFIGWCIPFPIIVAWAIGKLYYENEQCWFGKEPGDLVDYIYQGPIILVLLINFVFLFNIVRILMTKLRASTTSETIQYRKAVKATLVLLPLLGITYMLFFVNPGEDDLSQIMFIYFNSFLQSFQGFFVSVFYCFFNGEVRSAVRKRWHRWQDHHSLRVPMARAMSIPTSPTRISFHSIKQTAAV
T7 sequence (P24387 whole entry): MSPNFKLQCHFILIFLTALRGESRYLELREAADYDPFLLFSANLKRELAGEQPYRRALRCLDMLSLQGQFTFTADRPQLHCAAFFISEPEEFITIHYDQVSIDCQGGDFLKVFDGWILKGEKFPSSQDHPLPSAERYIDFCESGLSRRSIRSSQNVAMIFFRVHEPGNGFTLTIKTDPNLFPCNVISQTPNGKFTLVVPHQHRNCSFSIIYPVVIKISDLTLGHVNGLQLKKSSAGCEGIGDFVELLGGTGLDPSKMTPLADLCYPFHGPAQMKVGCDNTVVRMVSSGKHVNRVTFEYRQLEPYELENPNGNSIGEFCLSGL

Protein skinhead-1 = molecular target: T8, Protein skinhead-1 (Caenorhabditis elegans, UniProt P34707); format: functional
T8 sequence (P34707 whole entry): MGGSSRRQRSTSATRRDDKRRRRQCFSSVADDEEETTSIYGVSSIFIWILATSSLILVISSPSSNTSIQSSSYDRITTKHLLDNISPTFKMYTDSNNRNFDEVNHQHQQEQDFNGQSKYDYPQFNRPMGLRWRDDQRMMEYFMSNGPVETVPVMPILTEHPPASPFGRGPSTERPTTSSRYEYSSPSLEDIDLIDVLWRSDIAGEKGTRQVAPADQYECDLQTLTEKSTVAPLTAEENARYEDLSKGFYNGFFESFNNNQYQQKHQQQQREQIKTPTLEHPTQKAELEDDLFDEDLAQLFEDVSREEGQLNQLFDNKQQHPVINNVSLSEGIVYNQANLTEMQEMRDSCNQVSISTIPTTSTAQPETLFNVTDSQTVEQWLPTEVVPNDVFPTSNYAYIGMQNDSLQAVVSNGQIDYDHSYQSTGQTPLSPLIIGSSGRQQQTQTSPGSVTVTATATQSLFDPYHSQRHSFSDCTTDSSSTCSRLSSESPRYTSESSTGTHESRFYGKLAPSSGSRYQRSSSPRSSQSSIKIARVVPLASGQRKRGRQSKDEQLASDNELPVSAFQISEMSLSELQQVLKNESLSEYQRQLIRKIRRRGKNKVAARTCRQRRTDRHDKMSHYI

[11] = molecular target: T9, Endoribonuclease toxin MazF (Escherichia coli K-12, UniProt P0AE70); test: MazF toxin RNase activators, dose response, biochemical, fluorescence, single-stranded RNA substrate, uHTS hits (AID 588481); format: functional
T9 sequence (P0AE70 whole entry): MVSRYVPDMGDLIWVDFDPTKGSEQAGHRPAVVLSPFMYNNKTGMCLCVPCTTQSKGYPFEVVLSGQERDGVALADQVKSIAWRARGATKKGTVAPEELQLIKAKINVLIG

[12] = molecular target: T9, Endoribonuclease toxin MazF; test: fluorescent RNA oligo signal without MazF, dose response, counter-screen for MazEF activator project, biochemical, fluorescence, single-stranded RNase substrate (AID 588502); format: functional

Beta-galactosidase, sequence (Q8VNN2 whole entry): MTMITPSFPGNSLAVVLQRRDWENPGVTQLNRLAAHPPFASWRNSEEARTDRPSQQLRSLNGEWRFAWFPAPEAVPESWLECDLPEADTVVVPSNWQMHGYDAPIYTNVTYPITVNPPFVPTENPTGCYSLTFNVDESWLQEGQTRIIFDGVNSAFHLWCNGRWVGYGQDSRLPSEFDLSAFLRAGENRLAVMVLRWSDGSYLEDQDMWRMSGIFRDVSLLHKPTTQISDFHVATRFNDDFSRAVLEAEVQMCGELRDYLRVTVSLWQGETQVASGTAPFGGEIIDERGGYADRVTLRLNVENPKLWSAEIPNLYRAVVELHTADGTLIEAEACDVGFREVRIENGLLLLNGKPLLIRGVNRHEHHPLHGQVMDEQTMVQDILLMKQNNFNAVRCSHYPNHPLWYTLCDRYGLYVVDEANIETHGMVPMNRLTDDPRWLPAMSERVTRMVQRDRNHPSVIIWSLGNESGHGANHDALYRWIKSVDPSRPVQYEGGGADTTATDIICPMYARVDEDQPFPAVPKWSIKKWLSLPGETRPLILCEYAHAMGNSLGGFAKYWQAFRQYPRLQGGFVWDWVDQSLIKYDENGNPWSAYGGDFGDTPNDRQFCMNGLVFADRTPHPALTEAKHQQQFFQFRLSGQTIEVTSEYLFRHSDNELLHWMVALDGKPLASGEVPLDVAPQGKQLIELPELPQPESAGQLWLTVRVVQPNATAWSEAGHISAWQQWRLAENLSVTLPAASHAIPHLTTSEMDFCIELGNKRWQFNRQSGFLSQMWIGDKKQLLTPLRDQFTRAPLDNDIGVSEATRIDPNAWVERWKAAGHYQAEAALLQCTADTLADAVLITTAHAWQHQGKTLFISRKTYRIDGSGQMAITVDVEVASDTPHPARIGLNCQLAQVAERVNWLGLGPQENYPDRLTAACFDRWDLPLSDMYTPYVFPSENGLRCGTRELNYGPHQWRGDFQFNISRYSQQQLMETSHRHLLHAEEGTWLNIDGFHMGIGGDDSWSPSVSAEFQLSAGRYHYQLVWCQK
Beta Lactamase, sequence (Q932Y6 whole entry): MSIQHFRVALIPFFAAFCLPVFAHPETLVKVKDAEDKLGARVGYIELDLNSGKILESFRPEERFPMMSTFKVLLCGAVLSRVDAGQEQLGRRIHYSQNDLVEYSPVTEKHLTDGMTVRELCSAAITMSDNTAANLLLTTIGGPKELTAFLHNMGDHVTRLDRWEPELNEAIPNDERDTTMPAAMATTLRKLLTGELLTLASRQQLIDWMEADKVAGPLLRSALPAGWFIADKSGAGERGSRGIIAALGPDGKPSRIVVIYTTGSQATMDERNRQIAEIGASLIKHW

## Cc1ccc2oc(-c3ccccc3)nc2c1
[1]
  IC50: 5.32 µM (active)
[2]
  IC50: 39.3 µM (active)
[3]
  IC50: 7.6 µM (active)
Caspase-3
  IC50: 5.39 µM (active)

## CCn1c(=O)c([N+](=O)[O-])c(Cl)c2ccccc21
[4]
  IC50: 0.622 µM (active)
INS1
  AC50: 5.02 µM (active)
[5]
  EC50: 1.89 µM (active)
[6]
  AC50: 1.85 µM (active)
Beta Lactamase
  IC50: 28.6 µM (inactive)
Beta-galactosidase
  EC50: > 40 µM (inactive)
[7]
  IC50: 2.22 µM (active)
[8]
  AC50: 7.21 µM (active)
CHO
  IC50: 1.03 µM (active)
[9]
  EC50: 15 µM (active)

## Cc1ccc(C)c2nc3sc(C(=O)N4CCCc5ccccc54)c(N)c3cc12
[10]
  EC50: 8.83 µM (active)
[5]
  EC50: 1.56 µM (active)
Beta-galactosidase
  EC50: > 40 µM (inactive)
[7]
  IC50: > 40 µM (not active)
[9]
  EC50: > 60 µM (not active)

## COC(=O)CSc1nc2cc(C)cc(C)c2cc1C#N
Protein skinhead-1
  IC50: > 100 µM (inactive)
[11]
  EC50: > 99 µM (inactive)
[12]
  EC50: > 99 µM (inactive)
